Data as given in EP1881000A1, “Conjugates of 2-fluoro-2-deoxy-glucose and their uses as anti cancer agents” (INSTITUT NATIONAL DE LA SANTE ET DE LA RECHERCHE MEDICALE …, priority 2006, dated 2008).
“And” between values parts separate entries of the source, which are not always exact repeats. Equal entries are not always repeated.

Key:
Murine Melanoma B16 = assay: In vitro cytotoxicity assay (resazurin reduction test); assay type: cell-based; details: Mus musculus, 48-h continuous drug exposure
From the text: (§1) Normal human fibroblasts were purchased from Promocell (Heidelberg, Germany). This frozen culture was obtained from foreskin waste and the cells used in this work were from the seventh to twelfth passage of the culture. M4Beu, a human melanoma cell line, was established in the laboratory of Dr. J. F. Doré (INSERM, Unit 218, Lyon, France) from metastatic biopsy specimens and maintained in cell culture for almost 20 years in our lab. Breast cancer adenocarcinoma MCF 7, prostatic adenocarcinoma PC 3, colon adenocarcinoma DLD-1, lung non-small cell carcinoma A 549, ovary adenocarcinoma PA1 human cell lines and L 929 murine cell line were purchased from the European Collection of Cell Cultures (ECACC; Salisbury, United Kingdom). Murine Melanoma B16 was purchased from American Type of Culture Collection (ATCC, Manassas, USA) and murine colon carcinoma cell line CT-26 was obtained from Dr I. J. Fidler (University of Texas M.D. Anderson Cancer Center, Houston).
(§2) Stock cell cultures were maintained as monolayers in 75cm^2 culture flasks in Glutamax Eagle's minimum essential medium with Earle's salts (MEM; Gibco BRL, Paisley, UK) supplemented with 10% fetal calf serum (Sigma, St Quentin Fallavier, France), 1 mM sodium pyruvate (Gibco), 1X vitamins solution (Gibco), 1X non essential amino acids solution (Gibco) and 4 µg/ml of gentamicine (Gibco). Cells were grown at 37°C in a humidified atmosphere containing 5% CO2.
(§3) Cells were plated at a density of 5 x 10^3 cells per well in 96-well microplates (Nunclon™, Nunc, Roskilde, Denmark) in 150 µl of culture medium and were allowed to adhere for 16 h before treatment with the compound tested.
(§4) Stock solution of each compound was prepared in dimethylsulfoxide (DMSO) and kept at -20°C. until use. The percentage of DMSO was kept at 0.5% (v/v) whichever the concentration tested. […] Fifty microliters of a 4X solution in MEM was then added and a 48-h continuous drug exposure protocol was used. Then, the cytotoxic effect of compounds on tumour cells was tested by using Resazurin reduction test.
(§5) Resazurin was identified as the Alamar blue dye (O'Brien, J. et al.; European Journal of Biochemistry, 267, 5421-6, (2000)). The resazurin reduction test (RRT) was carried out according to the protocol described here. Briefly, plates were rinsed by 200 µl PBS (37° C, Gibco) using a multichannel dispenser (Labsystems, Helsinki, Finland) and emptied by overturning on absorbent toweling. Then, 150 µl of a 25 µg/ml solution of resazurin in MEM without SVF nor Phenol red was added in each well. The plates were incubated 1 h at 37° C. in an humidified atmosphere with 5% of CO2 for fluorescence development by living cells. Fluorescence was then measured on the automated 96-well plate reader Fluoroskan Ascent FL™ (Labsystems) using an excitation wavelength of 530 nm and an emission one of 590 nm.

[1] = test system: murine colon carcinoma cell line CT-26; assay: as above; assay type: cell-based; details: Mus musculus; CT26; 48-h continuous drug exposure
From the text: as §1, §2, §3, §4, §5

CT-26 colon carcinoma = assay: Antitumour activity in CT-26 colon carcinoma bearing mice, IP chemotherapy protocol; assay type: in vivo, BALB/c male mice; details: for tumour growth inhibition (CTW time-course): CT26 carcinoma, vs non-treated and vehicle-treated groups, p< 0.05; for LCK / Antitumour Efficacy / Survival Mt/Mc / Weight loss (% max) / antitumour activity according to the NCI criteria decisions: CT26 colon carcinoma; for antitumour activity according to the NCI criteria decisions: in words; for Life span of the animals: CT-26 colon carcinoma-bearing mice
Method: (§6) Drugs were dissolved in a mixture of dimethylacetamide (Sigma) and oleic macrogolglycerides (Labrafil® M1944Cs, Gattefossé) (10:90%, vol/vol).
(§7) It is performed in tumour-bearing mice following an IP chemotherapy protocol.
To establish CT-26 colon carcinoma model, 2.5 x 10^5 CT26 cells (Dr Iaiaih J.Filder of MDAnderson Cancer Center, University of Texas; in vitro doubling time of 20 hours) were suspended in 100 µL of phosphate buffer solution and injected into the subcutaneous tissue of the right flank of BALB/c male mice, 6-weeks-old (Charles River, France) on day zero.
(§8) For both molecules and both animal models, treatment was initiated eight days post tumour grafting, when the tumours had reached a measurable size, corresponding to a calculated tumour weight (CTW) of 40 and 70 mg for B16 and CT-26 models respectively.
(§9) Animals were then randomly divided in both treatment and control groups. […] Two dosages have been evaluated, MTD and 0.75 MTD
(§10) Mice were weighed and observed every two days over a 30-day -period to evaluate general clinical state. Length and width of tumours were measured every two days over a 30-day-period using a dedicated slide calliper.
(§11) The Calculated Tumour Weight (CTW) of each tumour was determined according to the formula: CTW(mg) = L × 1^2 /2 [formula] with L = length in mm and 1= width in mm.
Considering physiopathological features of the CT26 colon carcinoma model, mainly cachexy, drugs 21a and 40a, were assessed at the lowest dosage, i.e. 0.75 MTD administered at Day 8, Day 12, Day 16.
The reference treatment chlorambucil was given at the MTD dosage according to the same schedule.
(§12) For subcutaneously growing tumours, antitumour activity is often assessed by using the log10 cell kill (LCK) which is calculated from the following formula: LCK = T-C value in days/3.32 × Td [formula] T is the median time (in days) required for the treatment group tumours to reach a predetermined CTW (e.g. 1000 mg). C is the median time (in days) required for the control group tumours to reach the same CTW. Td is the tumour volume doubling time (in days) estimated from the best fit straight line from a log-linear growth plot of the control group tumours in exponential growth.
(§13) An increase in life span was defined by the ratio of the median survival of drug-treated mice (Mt) versus controls (Mc): a survival Mt/Mc equal or higher than 125 % was sought
(§14) Mean weight loss of the group was used to evaluate treatment side effects. A mean body weight loss of greater 20% was considered to indicate an excessively toxic dosage.

B16 melanoma = assay: Antitumour activity in B16-melanoma bearing mice, IP chemotherapy protocol; assay type: in vivo, C57BL6J male mice; details: for Life span of the animals: B16 melanoma-bearing mice; for antitumour activity according to the NCI criteria decisions: in words
Method: as §6, §7
To establish B16 melanoma model, 3 x 10^5 B16F0 cells (ATCC, Manassas, USA; in vitro doubling time of 16 hours) were suspended in 100 µL of phosphate buffer solution (PBS®, life Technologies) and injected into the subcutaneous tissue of the right flank of C57BL6J male mice, 6-weeks-old (Charles River, France) on day zero.
as §8, §9, §10, §11, §12, §13, §14

[2] = 0,75 MTD IP at Day 8, 12 and 16
[3] = B16 melanoma, dosage not stated
[4] = B16 melanoma, 75% MTD, IP D8, D12, D16
[5] = B16 melanoma, MTD, IP D8, D12, D16

SMILES | IC50 (Murine Melanoma B16) | IC50 [1] | tumour growth inhibition (CTW time-course) (CT-26 colon carcinoma; [2]) | LCK (CT-26 colon carcinoma; dosage not stated) | Antitumour Efficacy (CT-26 colon carcinoma; 75% MTD, IP D8, D12, D16) | LCK (CT-26 colon carcinoma; 75% MTD, IP D8, D12, D16) | Survival Mt/Mc (CT-26 colon carcinoma; 75% MTD, IP D8, D12, D16) | antitumour activity according to the NCI criteria decisions (CT-26 colon carcinoma) | Life span of the animals (CT-26 colon carcinoma) | LCK (B16 melanoma; [3]) | Life span of the animals (B16 melanoma) | Antitumour Efficacy (B16 melanoma; [4]) | LCK (B16 melanoma; [4]) | Survival Mt/Mc (B16 melanoma; [4]) | Weight loss (% max) (B16 melanoma; [4]) | Antitumour Efficacy (B16 melanoma; [5]) | LCK (B16 melanoma; [5]) | Survival Mt/Mc (B16 melanoma; [5]) | Weight loss (% max) (B16 melanoma; [5]) | antitumour activity according to the NCI criteria decisions (B16 melanoma; B16 melanoma) | other results
CC(=O)OC[C@H]1O[C@@H](Oc2ccc(NC(=O)CNC(=O)CCCc3ccc(N(CCCl)CCCl)cc3)cc2)[C@H](F)[C@@H](OC(C)=O)[C@@H]1OC(C)=O [Compound 40a, N-{2-[4-(3,4,6-tri-O-acetyl-2-deoxy-2-fluoro-β-D-glucopyranosyloxy)phenyl]amino-2-oxoethyl}-4-{4-[bis(2-chloroethyl)amino]phenyl}butanamide] | 10 ± 0.5 µM | 4.3 ± 0.2 µM | significant tumour growth inhibition | around 1.5 | ++ (1.7 < LCK < 1.9 highly active drug (++)) | 1.52 | 1.29 | highly active | increased | around 1.5 | increased | ++ (1.7 < LCK < 1.9 highly active drug (++)) | 1.81 | 1.5 | 13.6% | ++ (1.7 < LCK < 1.9 highly active drug (++)) | 1.53 | 0.8 | 16.9% | highly active | Weight loss (% max) (CT-26 colon carcinoma; 75% MTD, IP D8, D12, D16): 21% and 21.5%
O=C(O)CCCc1ccc(N(CCCl)CCCl)cc1 [chlorambucil, reference compound] | 42.6 ± 9.5 µM | 6.3 ± 0.4 µM |  | 0.79 |  |  |  | discrete antitumour activity | not | < 0.7 | not | - (LCK < 0.7 inactive drug (-)) | 0.05 | 0.67 | 7.3% | - (LCK < 0.7 inactive drug (-)) | 0.24 | 1 | 13.6% | inactive | tumour growth inhibition (CTW time-course) (CT-26 colon carcinoma; MTD dosage, same schedule): significant tumour growth inhibition; LCK (CT-26 colon carcinoma; MTD, IP D8, D12, D16): 0.79; Survival Mt/Mc (CT-26 colon carcinoma; MTD, IP D8, D12, D16): 0.74; Weight loss (% max) (CT-26 colon carcinoma; MTD, IP D8, D12, D16): 13.9%; antitumour activity according to the NCI criteria decisions (CT-26 colon carcinoma; listed as Chlorambucil): failed in exhibiting any antitumour activity; tumour growth inhibition (CTW time-course) (B16 melanoma; B16 melanoma, both MTD and 0,75 MTD dosages, vs non-treated and vehicle-treated groups, p< 0.05): failed to induce any tumour growth inhibition; antitumour activity according to the NCI criteria decisions (B16 melanoma; B16 melanoma, listed as Chlorambucil): failed in exhibiting any antitumour activity
CC(=O)OC[C@H]1O[C@@H](NC(=O)CNC(=O)CCCc2ccc(N(CCCl)CCCl)cc2)[C@H](F)[C@@H](OC(C)=O)[C@@H]1OC(C)=O [Compound 21a, N-[2-(3,4,6-tri-O-acetyl-2-deoxy-2-fluoro-β-D-glucopyranosylamino)-2-oxoethyl]-4-{4-[bis(2-chloroethyl)amino]phenyl}butanamide] | 6.4 ± 0.6 µM | 7 ± 1 µM | significant tumour growth inhibition | around 1.1 | + (0.7 < LCK < 1.2 active drug (+)) | 1.10 | 1.5 | active | increased | around 1.1 | increased | + (0.7 < LCK < 1.2 active drug (+)) | 1.10 | 1.18 | 16% | + (0.7 < LCK < 1.2 active drug (+)) | 1.02 | 0.74 | 15.7% | active | Weight loss (% max) (CT-26 colon carcinoma; 75% MTD, IP D8, D12, D16): 17.1%
